According to patent EP0050799B1, “New processes for the production of di-alkyl esters and optically active mono-alkyl esters of 3-aminoglutaric acid” (ZAIDAN HOJIN BISEIBUTSU KAGAKU KENKYU KAI, priority 1980, dated 1982):
≈ marks a conversion by molar mass, not a printed value.

The molecules below were run on Staphylococcus aureus (assay: antibacterial activity test (minimum concentration inhibitory to growth)). Conditions: Staphylococcus aureus.
Type: cell-based

| MIC [µg/mL] | Compound |
| --- | --- |
| 10 to 100 (≈ 62.1 to 621 µM) | COC(=O)C[C@@H](N)CC(=O)O [Example 1 (b), β-(S)-aminoglutaric acid mono-methyl ester] |
| 20 to 100 (≈ 114 to 571 µM) | CCOC(=O)C[C@@H](N)CC(=O)O [Example 2, β-(S)-Aminoglutaric acid mono-ethyl ester] |
| 20 (≈ 124 µM) | COC(=O)C[C@H](N)CC(=O)O [Example 4, β-(R)-aminoglutaric acid mono- methyl ester] |
| 30 to 100 (≈ 171 to 571 µM) | CCOC(=O)C[C@H](N)CC(=O)O [Example 7, β-(R)-Aminoglutaric acid mono-ethyl ester] |

Same assay, conditions: general statement in words

| Compound | antibacterial activity against Gram-positive bacteria, particularly against Staphylococcus aureus |
| --- | --- |
| COC(=O)C[C@@H](N)CC(=O)O [Example 1 (b), β-(S)-aminoglutaric acid mono-methyl ester] | exhibit antibacterial activity |
| CCOC(=O)C[C@@H](N)CC(=O)O [Example 2, β-(S)-Aminoglutaric acid mono-ethyl ester] | exhibit antibacterial activity |
| COC(=O)C[C@H](N)CC(=O)O [Example 4, β-(R)-aminoglutaric acid mono- methyl ester] | exhibit an antibacterial activity |
